In PubChem BioAssay (NCI) one finds GI50 and TGI data, which are given here for 7 molecules.

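Results reflect a 48-hour exposure of cells in 96-well plates to compound at five concentrations. GI50 = concentration required for 50% inhibition of growth. Definition used: TGI = concentration required for complete inhibition of growth.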

Some test systems named below: SN12C renal; BT-549 breast; SNB-19 CNS; OVCAR-5 ovarian; HCT-116 colon; HT29 colon; MALME-3M melanoma; NCI-H23 lung; NCI/ADR-RES ovarian; CCRF-CEM leukemia.
Assay in all cases: NCI anticancer screen, dose series, 48 h

For the molecule `CC1(C)N=C(N)N=C(N)N1c1ccc(CCCCc2ccc(Cl)cc2S(=O)(=O)F)c(Cl)c1`, the GI50 in the test on SN12C renal was 0.34 µM; in the test with BT-549 breast it was 2.64 µM; in the test on SNB-19 CNS, 0.76 µM; in the test with OVCAR-5 ovarian, 0.666 µM; in the test with HCT-116 colon it was 0.346 µM; with HT29 colon it was 0.374 µM. Moreover, the GI50 was 1.65 µM in the test on MALME-3M melanoma, 0.537 µM in the test on NCI-H23 lung, 5.28 µM with NCI/ADR-RES ovarian and 0.372 µM with CCRF-CEM leukemia. In addition, the TGI in the test on SN12C renal is 14.7 µM; in the test with BT-549 breast it was 24.3 µM; with SNB-19 CNS, 21.3 µM; in the test with OVCAR-5 ovarian, 22.8 µM; with HCT-116 colon, above 38.3 µM; in the test on HT29 colon, 14.5 µM. Further, the TGI with MALME-3M melanoma was 14.9 µM; in the test with NCI-H23 lung, 18.5 µM; in the test with NCI/ADR-RES ovarian, above 100 µM; with CCRF-CEM leukemia, 8.16 µM.
As for `CC(=O)OC1COC(Oc2c(C)c3c4c(c2O)[C@@H](C)CC[C@@H]4[C@@H](C)C[C@H]3C=C(C)C)C(O)C1OC(C)=O` (some centres undefined), the GI50 in the test with SN12C renal is 12.4 µM; with BT-549 breast it was 26.9 µM; in the test on SNB-19 CNS it was 16 µM; in the test with OVCAR-5 ovarian, 15.5 µM; with HCT-116 colon it was 10.8 µM; in the test on HT29 colon, 25.6 µM. The GI50 was 15.2 µM in the test on MALME-3M melanoma, 7.49 µM with NCI-H23 lung, 9.2 µM in the test on NCI/ADR-RES ovarian and 12 µM with CCRF-CEM leukemia. In addition, the TGI was 25.8 µM with SN12C renal; 69.7 µM in the test on BT-549 breast; 40.1 µM in the test with SNB-19 CNS; 30.1 µM in the test on OVCAR-5 ovarian; 23.4 µM with HCT-116 colon; 74.4 µM in the test with HT29 colon. For the same molecule, the TGI with MALME-3M melanoma was 32.3 µM; with NCI-H23 lung, 18.6 µM; in the test on NCI/ADR-RES ovarian, 23.7 µM; in the test on CCRF-CEM leukemia it was 33.4 µM.
As to `COc1ccccc1/C=N\N/C(N)=N\N=C\c1ccccc1OC`, the GI50 in the test with SN12C renal was 1.7 µM; with BT-549 breast, 0.785 µM; in the test with SNB-19 CNS it was 0.376 µM; in the test with OVCAR-5 ovarian, 3.36 µM; in the test with HCT-116 colon, 0.358 µM; in the test on HT29 colon, 0.382 µM. For the same molecule, the GI50 in the test on MALME-3M melanoma was 0.237 µM; with NCI-H23 lung it was 0.618 µM; with NCI/ADR-RES ovarian it was 0.39 µM; with CCRF-CEM leukemia, 0.323 µM. The TGI was above 46.8 µM in the test with SN12C renal; 3.56 µM in the test with BT-549 breast; 27.7 µM in the test with SNB-19 CNS; above 100 µM in the test on OVCAR-5 ovarian; 5.55 µM in the test on HCT-116 colon; above 55.8 µM in the test with HT29 colon. The TGI with MALME-3M melanoma is 5.2 µM; with NCI-H23 lung, above 31.2 µM; in the test with CCRF-CEM leukemia, 2.08 µM.
Consider `COc1cc(C(=O)N2CCN(C=O)C2=S)cc(OC)c1OC`, for which the GI50 in the test on SN12C renal was 20.2 µM; in the test with BT-549 breast it was 25 µM; in the test on SNB-19 CNS, 28.5 µM; in the test with OVCAR-5 ovarian it was 48.5 µM; in the test with HCT-116 colon it was 35.6 µM; in the test on HT29 colon, 26.7 µM. In addition, the GI50 is 24.3 µM in the test on MALME-3M melanoma, 25.9 µM with NCI-H23 lung, 36.1 µM in the test with NCI/ADR-RES ovarian and 18.3 µM in the test on CCRF-CEM leukemia. Also, the TGI in the test on SN12C renal is 40.2 µM; in the test on BT-549 breast it was 62.4 µM; in the test on SNB-19 CNS, 70.4 µM; in the test with OVCAR-5 ovarian, above 100 µM; in the test with HCT-116 colon, above 100 µM; with HT29 colon it was 66.4 µM. Besides, the TGI was 43.3 µM with MALME-3M melanoma, 62 µM in the test with NCI-H23 lung, above 100 µM in the test on NCI/ADR-RES ovarian and 49 µM with CCRF-CEM leukemia.
On to `COc1cc(Nc2ncccc2C(=O)NCc2cn(Cc3cccc(Oc4ccccc4)c3)nn2)cc(OC)c1`, for which the GI50 was 7.41 µM in the test with SN12C renal; 7.16 µM in the test on BT-549 breast; 9.64 µM in the test with SNB-19 CNS; above 100 µM in the test on OVCAR-5 ovarian; 4.34 µM in the test on HCT-116 colon; 3.88 µM in the test on HT29 colon. Also, the GI50 was 5.81 µM with MALME-3M melanoma, 6.22 µM in the test on NCI-H23 lung, 3.21 µM in the test with NCI/ADR-RES ovarian and 4.19 µM in the test with CCRF-CEM leukemia. In addition, the TGI in the test on SN12C renal, with BT-549 breast, in the test with SNB-19 CNS, in the test on OVCAR-5 ovarian, with HCT-116 colon and in the test on HT29 colon was above 100 µM throughout. In addition, the TGI in the test on MALME-3M melanoma, in the test with NCI-H23 lung, with NCI/ADR-RES ovarian and in the test with CCRF-CEM leukemia was above 100 µM throughout.
With `COC(=O)c1ccc2c(c1)nc(NC(=O)c1ccccc1)n2CCCc1ccccc1`, the GI50 is 17.6 µM in the test on SN12C renal; 3.33 µM in the test on BT-549 breast; 4.25 µM in the test on SNB-19 CNS; 22.6 µM in the test with OVCAR-5 ovarian; 3.06 µM in the test on HCT-116 colon; 6.92 µM in the test with HT29 colon. In addition, the GI50 in the test on MALME-3M melanoma is 5.73 µM; in the test with NCI-H23 lung, 5.26 µM; in the test with NCI/ADR-RES ovarian it was 4.1 µM; in the test on CCRF-CEM leukemia, 1.86 µM. In addition, the TGI in the test on SN12C renal, in the test with BT-549 breast, in the test with SNB-19 CNS, in the test on OVCAR-5 ovarian, with HCT-116 colon and with HT29 colon was above 100 µM throughout. In addition, the TGI with MALME-3M melanoma, with NCI-H23 lung, in the test with NCI/ADR-RES ovarian and with CCRF-CEM leukemia was above 100 µM each time.
`CC/C=C\C[C@H](O)C/C=C1/C(=O)C(Cl)=C[C@@H]1C/C=C\CCCC(=O)OC`: the GI50 is 0.426 µM with SN12C renal; 0.341 µM with BT-549 breast; 0.946 µM in the test on SNB-19 CNS; 0.754 µM with OVCAR-5 ovarian; 0.275 µM in the test on HCT-116 colon; 0.406 µM with HT29 colon. Moreover, the GI50 with MALME-3M melanoma was 0.451 µM; in the test on NCI-H23 lung, 0.523 µM; in the test on NCI/ADR-RES ovarian, 0.581 µM; with CCRF-CEM leukemia, 0.412 µM. Besides, the TGI with SN12C renal was 1.33 µM; in the test on BT-549 breast, 1.04 µM; with SNB-19 CNS, 3.31 µM; in the test with OVCAR-5 ovarian it was 3.07 µM; in the test with HCT-116 colon, 0.576 µM; in the test on HT29 colon, 1.07 µM. Besides, the TGI in the test with MALME-3M melanoma turned out to be 1.23 µM; in the test with NCI-H23 lung, 1.97 µM; with NCI/ADR-RES ovarian, 9.14 µM; in the test with CCRF-CEM leukemia, 1.73 µM.
